From ChEMBL document CHEMBL1143353, “Pyrazolo[1,5-a]-1,3,5-triazine as a purine bioisostere: access to potent cyclin-dependent kinase inhibitor (R)-roscovitine analogue” (J Med Chem, 2009)

How the values were obtained:
MOLT-4 = assay: cells; settings: Homo sapiens, MOLT-4, 72 h
Description: Antiproliferative activity against human MOLT4 cells after 72 hrs by ViaLight assay

HCC 2998 = assay: cells; settings: Homo sapiens, HCC 2998, 72 h
Description: Antiproliferative activity against human HCC2998 cells after 72 hrs by ViaLight assay

HEK293 = assay: Antiproliferative activity against human HEK293 cells after 48 hrs by MTS reduction assay; format: cell-based; settings: HEK293, 48 h
SF-295 = assay: cells; settings: Homo sapiens, SF-295, 72 h
Description: Antiproliferative activity against human SF295 cells after 72 hrs by ViaLight assay

cells [1] = settings: Homo sapiens, Hs-578T, 72 h
Description: Antiproliferative activity against human Hs 578T cells after 72 hrs by ViaLight assay

NCI-H522 = assay: cells; settings: Homo sapiens, NCI-H522, 72 h
Description: Antiproliferative activity against human NCI-H522 cells after 72 hrs by ViaLight assay

A549 = assay: cells; settings: Homo sapiens, A549, 72 h
Description: Antiproliferative activity against human A549 cells after 72 hrs by ViaLight assay

786-0 = assay: cells; settings: Homo sapiens, 786-0, 72 h
Description: Antiproliferative activity against human 786-0 cells after 72 hrs by ViaLight assay

RXF 393 = assay: cells; settings: Homo sapiens, RXF 393, 72 h
Description: Antiproliferative activity against human RFX393 cells after 72 hrs by ViaLight assay

cells [2] = settings: Homo sapiens, HL-60, 72 h
Description: Antiproliferative activity against human HL60(TB) cells after 72 hrs by ViaLight assay

DU-145 = assay: cells; settings: Homo sapiens, DU-145, 72 h
Description: Antiproliferative activity against human DU145 cells after 72 hrs by ViaLight assay

NCI-H226 = assay: cells; settings: Homo sapiens, NCI-H226, 72 h
Description: Antiproliferative activity against human NCI-H226 cells after 72 hrs by ViaLight assay

HT-29 = assay: cells; settings: Homo sapiens, HT-29, 72 h
Description: Antiproliferative activity against human HT29 cells after 72 hrs by ViaLight assay

TK-10 = assay: cells; settings: Homo sapiens, TK-10, 72 h
Description: Antiproliferative activity against human TK10 cells after 72 hrs by ViaLight assay

U-251 = assay: cells; settings: Homo sapiens, U-251, 72 h
Description: Antiproliferative activity against human U251 cells after 72 hrs by ViaLight assay

KM12 = assay: cells; settings: Homo sapiens, KM12, 72 h
Description: Antiproliferative activity against human KM12 cells after 72 hrs by ViaLight assay

OVCAR-3 = assay: cells; settings: Homo sapiens, OVCAR-3, 72 h
Description: Antiproliferative activity against human OVCAR-3 cells after 72 hrs by ViaLight assay

HCT-116 = assay: cells; settings: Homo sapiens, HCT-116, 72 h
Description: Antiproliferative activity against human HCT116 cells after 72 hrs by ViaLight assay

HCT-15 = assay: cells; settings: Homo sapiens, HCT-15, 72 h
Description: Antiproliferative activity against human HCT15 cells after 72 hrs by ViaLight assay

cells [3] = settings: Homo sapiens, RPMI8266, 72 h
Description: Antiproliferative activity against human RPMI8266 cells after 72 hrs by ViaLight assay

A498 = assay: cells; settings: Homo sapiens, A498, 72 h
Description: Antiproliferative activity against human A498 cells after 72 hrs by ViaLight assay

LOX IMVI = assay: cells; settings: Homo sapiens, 72 h
Description: Antiproliferative activity against human LOXIMVI cells after 72 hrs by ViaLight assay

MDA-MB-435 = assay: cells; settings: Homo sapiens, MDA-MB-435, 72 h
Description: Antiproliferative activity against human MDA-MB-435 cells after 72 hrs by ViaLight assay

SNB-19 = assay: cells; settings: Homo sapiens, SNB-19, 72 h
Description: Antiproliferative activity against human SNB19 cells after 72 hrs by ViaLight assay

HOP-62 = assay: cells; settings: Homo sapiens, HOP-62, 72 h
Description: Antiproliferative activity against human HOP62 cells after 72 hrs by ViaLight assay

HOP-92 = assay: cells; settings: Homo sapiens, HOP-92, 72 h
Description: Antiproliferative activity against human HOP92 cells after 72 hrs by ViaLight assay

CC[C@H](CO)Nc1nc(NCc2ccccc2)c2ncn(C(C)C)c2n1 [SELICICLIB]
GI50 (MOLT-4): 25.1 µM | GI50 (MOLT-4; read-out: pGI50 (converted)): 25.1 µM | GI50 (HCC 2998): 31.6 µM | GI50 (HCC 2998; read-out: pGI50 (converted)): 31.6 µM | IC50 (HEK293): 48.9 µM | GI50 (SF-295): 25.1 µM | GI50 (SF-295; read-out: pGI50 (converted)): 25.1 µM | GI50 (cells [1]): 12.8 µM | TGI (cells [1]): 12.6 µM | GI50 (NCI-H522): 15.8 µM | TGI (NCI-H522): 63.1 µM | GI50 (NCI-H522; read-out: pGI50 (converted)): 15.8 µM | TGI (NCI-H522; read-out: pTGI): 63.1 µM | GI50 (A549): 12.6 µM | GI50 (A549; read-out: pGI50 (converted)): 12.6 µM | GI50 (786-0): 25.1 µM | GI50 (RXF 393): 5 µM | GI50 (RXF 393; read-out: pGI50 (converted)): 6.31 µM | GI50 (cells [2]): 19.9 µM | GI50 (cells [2]; read-out: pGI50 (converted)): 20 µM | GI50 (DU-145): 15.8 µM | GI50 (DU-145; read-out: pGI50 (converted)): 20 µM | GI50 (NCI-H226): 19.9 µM | GI50 (NCI-H226; read-out: pGI50 (converted)): 20 µM | GI50 (HT-29): 19.9 µM | GI50 (HT-29; read-out: pGI50 (converted)): 20 µM | GI50 (TK-10): 63.1 µM | GI50 (TK-10; read-out: pGI50 (converted)): 5.01 µM | GI50 (U-251): 50.1 µM | GI50 (U-251; read-out: pGI50 (converted)): 12.6 µM | GI50 (KM12): 5.01 µM | TGI (KM12): 63.1 µM | GI50 (KM12; read-out: pGI50 (converted)): 5.01 µM | TGI (KM12; read-out: pTGI): 63.1 µM | GI50 (OVCAR-3): 12.6 µM | GI50 (OVCAR-3; read-out: pGI50 (converted)): 12.6 µM | GI50 (HCT-116): 5.01 µM | GI50 (HCT-116; read-out: pGI50 (converted)): 5.01 µM | GI50 (HCT-15): 19.9 µM | GI50 (HCT-15; read-out: pGI50 (converted)): 20 µM | GI50 (cells [3]): 25.1 µM | GI50 (cells [3]; read-out: pGI50 (converted)): 25.1 µM | GI50 (A498): 50.1 µM | GI50 (A498; read-out: pGI50 (converted)): 25.1 µM | GI50 (LOX IMVI): 12.6 µM | GI50 (LOX IMVI; read-out: pGI50 (converted)): 20 µM | TGI (LOX IMVI; read-out: pTGI): 50.1 µM | GI50 (MDA-MB-435): 12.6 µM | TGI (MDA-MB-435): 50.1 µM | GI50 (SNB-19; read-out: pGI50 (converted)): 12.6 µM | TGI (SNB-19; read-out: pTGI): 31.6 µM | GI50 (HOP-62): 25.1 µM | GI50 (HOP-62; read-out: pGI50 (converted)): 25.1 µM | GI50 (HOP-92): 50.1 µM | GI50 (HOP-92; read-out: pGI50 (converted)): 50.1 µM
